# Like-named read-outs stand apart in the source and are kept apart here. [5mC] = 5-methylcytosine
# Experiments:
# tissue injury = details: wide variety of in vivo and in vitro models, cited from earlier work
# erythropoiesis = details: cited from earlier work
# HeyA8-MDR cells = assay: EPH-B4 siRNA effect on tumor promoting effect of EPO in nude mice (FIG. 17); format: in vivo; details: HeyA8 MDR i.p.
# Procedure: Female nude mice were injected i.p. with 1×10^6 HeyA8-MDR cells. Day eight following injection the cells were treated with control siRNA-DOPC, EPH-B4 siRNA-DOPC, EPO, or in EPO+ control or EPH-B4 siRNA-DOPC (10 per group). (50 U EPO given 3× week, 5 μg siRNA 2× week). Mice were sacrificed on day 25 and tumor weights were measured. Statistics were done using students T-test. B) Distribution of tumor weight per group.
# In these experiments we sought to determine the response to erythropoietin (EPO) treatment in a panel of ovarian cancer cell lines. […] It was then necessary to determine protein expression of these receptors in the panel. […] We then categorized these expression changes particularly with regard to the EPOR and EPH-B4 to then analyze the response to EPO treatment. We analyzed their response to chemotherapy in conjunction with EPO. […] It was then necessary to analyze the activation of signaling pathways known to be activated by these receptors in response to EPO treatment. Three cell lines were starved for two hours to isolate their response to EPO. […] We then sought to determine a EPO dose that optimized its tumor promoting effect in vivo. Female nude mice were injected i.p. with HeyA8 MDR (positive for both EPOR and EPH-B4). […] Treatment continued until tumors became evident, the mice were then sacrificed and the tumor weight was determined. […]
# [1] = system: EphB4 expression in the transiently transfected 293T cell line; assay: EphB4 knockdown by antisense ODN in transiently transfected cells; format: cell-based; details: cytosine at the CpG site methylated, compared with AS-10; data not shown
# [2] = 351 patients receiving radiotherapy; 3 times per week, from 10 to 14 days before and through radiation therapy; placebo 15%; cited from earlier work
substance,measurement,setting,value
"CEpo: carbamylated Epo, does not stimulate erythropoiesis (Leist et al.)",tissue injury / neuroprotection,tissue injury,prevents
same,tissue injury / neuroprotection,tissue injury; listed as carbamylated EPO,neuroprotective
same,stimulation of erythropoiesis / haematopoiesis,erythropoiesis,does not stimulate
same,stimulation of erythropoiesis / haematopoiesis,erythropoiesis; listed as carbamylated EPO,fail to induce haematopoiesis
"EPH-B4 siRNA: siRNA specific to EPH-B4, sense 5′CAGCCAAUAGCCACUCUAA3′ (SEQ ID NO: 266), antisense 5′UUAGAGUGGCUAUUGGCUG3′ (SEQ ID NO: 267) (listed as RNA, chemistry not given here; listed as Homo sapiens)",EPO induced tumor growth,HeyA8-MDR cells; siRNA 5 μg 2× week in conjunction with EPO 50 U 3× week,completely abrogated
same,tumor growth,"HeyA8-MDR cells; siRNA alone, 5 μg siRNA 2× week from day eight",decrease
"AS-10M: antisense ODN AS-10 with the cytosine at the CpG site methylated (ATGGAGGCCTCGCTCAGAAA; DNA, [5mC] at 11, backbone and methylation of C not given here; listed as Homo sapiens)",EphB4 knockdown efficiency,[1],without any loss
"epoetin beta: EPO in the form of epoetin beta, NeoRecormon from Roche",patients with increased haemoglobin levels,[2],82%
